1 molecule from US20050215646A1, “Methods for treating multiple sclerosis and pharmaceutical compositions therefor” (Renovis, Inc., priority 2004, published 2005) can be followed below.

For assay [1], the target named is CXCR4 (Homo sapiens, UniProt P61073). The assay is described as follows: Migration of CHO-K1 cells expressing CXCR4. It is filed as cell-based. On the set-up: cDNA fragments encompassing chemokine receptor coding regions; expressed in transfected cells; host or cells: CHO-K1 (ATCC CCL-61), transient transfection. Conditions: CHO-K1 cells expressing CXCR4, 2 hours; FIG. 3. The procedure: (§1) CHO-K1 cells were obtained from American Type Culture Collection (CCL-61) and cultured in Ham's F12 media supplemented with 10% heat inactivated FBS and 100 μg/ml penicillin/streptomycin. cDNA fragments encompassing chemokine receptor coding regions were obtained from cDNAs synthesized from HL-60 cells and/or human peripheral blood mononuclear cells by the polymerase chain reaction. Expression constructs of chemokine receptors were generated by cloning PCR fragments into expression vector pEF6/V5-TOPO (K9610-20, Invitrogen). Transient transfections were carried out with Fugene 6 transfection reagent (1814443, Roche Applied Science) according to the manufacturer's instructions.
(§2) The CHO-chemokine receptor cells were used in migration assays 36 hours following transfection. In vitro migration assays were performed using a Neuroprobe Blindwell migration apparatus (AA12, Neuro Probe, Inc./16008 Industrial Drive, Gaithersburg, Md. 20877) according to the manufacturer's instructions with slight modifications. […]
(§3) Following the migration assays, migrated cells that had adhered to the underside of the filter were quantitated according to the manufacturer's instructions. […] Stained filtered were mounted onto microscope slides and migrated cells in each well were manually counted under 40× magnification.

Assay [2] relates to C57BL/6J mice model of EAE. Nature of the assay: C57BL/6J mice model of experimental autoimmune encephalomyelitis (EAE), prevention paradigm. The class given is in vivo, mouse.
For assay [3], the system named is CCR receptors. Nature of the assay: Migration of CHO-K1 cells expressing CCR receptors. The class given is cell-based, human. Conditions: 2 hours, FIG. 4. The procedure:
as §1, §2, §3

Assay [4] concerns the target T1, CXCR6 (Homo sapiens, UniProt O00574).
T1 construct: cDNA fragments encompassing chemokine receptor coding regions; expressed in transfected cells; host or cells: CHO-K1 (ATCC CCL-61), transient transfection
The assay is described as follows: Migration of CHO-K1 cells expressing CXCR6. The class given is cell-based. To be noted: CHO-K1 cells expressing CXCR6, 2 hours; FIG. 3. The procedure: as §1, §2, §3

For assay [5], the target named is T2, CX3CR1 (Homo sapiens, UniProt P49238).
T2 construct: cDNA fragments encompassing chemokine receptor coding regions; expressed in transfected cells; host or cells: CHO-K1 (ATCC CCL-61), transient transfection
T2 sequence (P49238 1-355): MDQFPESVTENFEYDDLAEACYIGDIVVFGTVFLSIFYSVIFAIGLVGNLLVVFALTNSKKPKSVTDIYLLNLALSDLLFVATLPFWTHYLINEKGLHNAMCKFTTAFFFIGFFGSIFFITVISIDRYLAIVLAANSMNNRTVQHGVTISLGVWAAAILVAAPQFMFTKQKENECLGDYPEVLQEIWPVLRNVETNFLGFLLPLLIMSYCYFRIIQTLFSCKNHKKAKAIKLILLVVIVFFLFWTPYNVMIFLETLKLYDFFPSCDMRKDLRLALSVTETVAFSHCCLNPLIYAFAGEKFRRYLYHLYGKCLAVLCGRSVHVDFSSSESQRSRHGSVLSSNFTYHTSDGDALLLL
The assay is described as follows: Migration of CHO-K1 cells expressing CX3CR1. Conditions: CHO-K1 cells expressing CX3CR1, 2 hours; FIG. 3. The class given is cell-based. The procedure:
as §1, §2, §3

Assay [6] relates to differentiated HL-60 cells. The assay is described as follows: Inhibition of chemoattractant-mediated chemotaxis of differentiated HL-60 cells after pretreatment. Conditions: cells pre-incubated with compound 30 minutes at 37° C, migration 2 hours. The class given is cell-based. The method, then: Compound 1 was prepared according to the methods of the invention and tested as described below. Briefly, cells were pre-incubated with Compound 1, and then assayed for chemokine-mediated cell migration.
In vitro cell migration assays were performed using differentiated HL-60 cells. HL-60 cells were differentiated by adding 1.4% DMSO to RPMI-1640 media supplemented with 10% FBS and 100 μg/ml penicillin/streptomycin. Cells on the sixth day following differentiation were used for in vitro migration assays.
In vitro migration assays were performed using a Neuroprobe migration apparatus (MBB96, Neuro Probe, Inc., Gaithersburg, Md. 20877) according to the manufacturer's protocol with slight modifications. Briefly, about 370 μl of diluted chemokine or control was added to a 96-well fibronectin-coated, black-walled Packard plate. Chemoattractants included 100 nM formyl-methionyl-leucyl-phenylalanine (fMLP), 30 ng/ml chemokine Stromal Cell-Derived Factor-1 (SDF-1), 300 ng/ml chemokine IL-8. Negative control included migration media alone. The plate was placed into the migration apparatus, an 8 μm framed filter was carefully placed on top of the plate, and the apparatus was screwed down. […]
After staining, the cells were washed with 200 μl phosphate-buffered saline. Cell number in each well was quantitated using ImageXpress (Axon Instruments) or a fluorescent plate reader.

T1 sequence (O00574 whole entry, the tested form may be a part): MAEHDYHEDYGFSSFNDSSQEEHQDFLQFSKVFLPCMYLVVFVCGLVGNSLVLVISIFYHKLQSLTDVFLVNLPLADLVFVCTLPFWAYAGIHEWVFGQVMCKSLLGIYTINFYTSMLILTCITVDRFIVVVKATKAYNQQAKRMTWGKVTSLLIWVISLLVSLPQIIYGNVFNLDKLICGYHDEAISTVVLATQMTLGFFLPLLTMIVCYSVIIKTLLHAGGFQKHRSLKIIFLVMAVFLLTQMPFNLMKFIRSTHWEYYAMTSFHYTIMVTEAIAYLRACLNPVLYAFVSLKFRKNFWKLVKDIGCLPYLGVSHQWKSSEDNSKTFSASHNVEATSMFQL
Chain of CXCR4 (P61073 whole entry, the tested form may be a part): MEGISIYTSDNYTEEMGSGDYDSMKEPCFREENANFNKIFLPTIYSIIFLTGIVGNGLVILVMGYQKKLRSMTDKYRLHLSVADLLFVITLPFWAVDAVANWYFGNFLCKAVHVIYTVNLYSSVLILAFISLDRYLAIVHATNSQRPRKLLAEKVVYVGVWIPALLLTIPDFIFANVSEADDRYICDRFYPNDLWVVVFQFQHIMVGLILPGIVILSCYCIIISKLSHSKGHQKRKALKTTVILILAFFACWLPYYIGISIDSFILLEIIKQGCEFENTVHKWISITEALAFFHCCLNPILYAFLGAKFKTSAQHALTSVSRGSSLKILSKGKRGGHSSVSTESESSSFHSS

For `CC(C)(C)c1cc(/C=[N+](\[O-])C(C)(C)C)cc(C(C)(C)C)c1O` [Compound 1, α-(4-hydroxy-3,5-di-tert-butylphenyl)-N-tert-butylnitrone], the “induction of cell migration” value in assay [1] is “induced migration”; in assay [3] it was “did not induce migration”; in assay [4], “induced migration”; in assay [5], “induced migration”. Besides, the “reversal of EAE-associated weight loss” value in assay [2] (10 mg/kg oral once a day, FIG. 10) was “significant effect on reversal”. Besides, in assay [2] (10 mg/kg vs Vehicle, Day 26, failing to reach statistical significance (p=0.0513), FIG. 11), the “tissue infiltration score (spinal cord, H&E)” value is given as “lower infiltration score than control mice”. The maximum disease score result in assay [2] (oral gavage once a day from 7 days before induction, Days 9-26, FIG. 8) was “significant effect”. Moreover, the cumulative disease score entry in assay [2] (oral gavage once a day from 7 days before induction, Days 9-26, FIG. 9) is given as “significant effect”. Further, the “disease severity (average clinical scores)” value in assay [2] (oral gavage once a day, 0.3, 1, 3, 10 mg/kg from 7 days before induction, vs Vehicle, FIG. 7) is on record as “significant reduction”. Moreover, in assay [6] (FIG. 1), the “chemotaxis of the cells toward CXC chemokines such as IL-8 and SDF-1” value is “inhibits”. Further, the “chemotaxis of the cells toward fMLP and CCR chemokines such as Rantes and MIP-1” value in assay [6] (FIG. 2) was “inhibits”.
